Structures are written as SMILES. Entries after “also recorded” stand apart in the source; their conditions may differ.

The text below walks through data of patent US8344139B2, “Process for preparing crystalline polymorphic forms of (6R)-L-erythro-tetrahydrobiopterin dihydrochloride” (Merck Eprova AG, priority 2003, dated 2013).

Series [1] is described as follows: Storage of solid forms under defined relative humidity, resulting crystal form. In kind it is physicochemical. Here is the method: Hydrate form C is retained. 71 mg of polymorph form A according to example A1 are stored in air under 52% relative humidity at room temperature for 17 days. […] About 50 mg of polymorph form F according to example A26 are placed on an powder X-ray diffraction sample holder of 0.8 mm thickness (TTK type, obtained form Anton Pear GmbH, Graz, Austria). The prepared sample holder is placed in the closed sample chamber of a Philips X'Pert powder X-ray diffractometer and the sample chamber is purged with nitrogen and partially saturated with water vapour to a resulting relative humidity of about 52%. After an exposure time of about 24 hour a powder X-ray diffraction pattern is recorded.

Series [2] can be described thus: Hygroscopicity / water adsorption (thermogravimetry, TG-FTIR). In kind it is physicochemical. The note with it: for hygroscopicity / adsorbed water content: dihydrochloride; for adsorbed water content: water released on heating at 10° C./minute. As to the method:
1.05 gram of (6R)-L-erythro-tetrahydrobiopterin dihydrochloride are dissolved in 4.0 ml of bi-distilled water at 23±2° C. The solution is filtrated through a 0.22 μm millipore filtration unit and the filtrate is transferred into a 250 ml round flask. The solution in this flask is frozen by placing the flask into a bed with solid carbon dioxide at −78° C. The flask with the frozen content is then connected to a laboratory freeze dryer operating at a starting pressure of about 0.05 mbar. After about 20 hours the freeze drying is complete and the vacuum flask is disconnected from the freeze dryer and about 1.0 g of white, crystalline solid material is obtained. […] The sample begins to decompose above 200° C. TG-FTIR: Thermogravimetric measurements are carried out with a Netzsch Thermo-Micro-balance TG 209 coupled to a Bruker FTIR Spectrometer Vector 22 (sample pans with a pinhole, N2 atmosphere, heating rate 10 K/min).

Series [3] can be described thus: Relative stability of the crystal forms as described. The note with it: for relative stability of the crystal form: dihydrochloride.
A short description of series [4]: Phase equilibration / suspension stability tests in solvents, solid form by FT Raman and X-ray diffraction. In kind it is physicochemical. The note with it: room temperature. As to the method: 105 mg of polymorph A according to example A1 are suspended in 1.0 ml tertiary butyl methyl ether (TBME). The suspension is stirred under nitrogen atmosphere for about 18 hours at room temperature, filtrated and the white solid residue is then dried under air.
90 mg of polymorph A according to example A1 are suspended in 2.0 ml tetrahydrofuran (THF) and the resulting suspension is stirred in air for five days at room temperature, filtrated and the white solid residue is then dried under air.
The white suspension is stirred for 5 hours at room temperature, filtrated and dried under nitrogen at room temperature.
The white suspension is stirred over night at room temperature, filtrated and then dried under nitrogen at room temperature.
The white suspension is stirred over night at room temperature, filtrated and dried under nitrogen room temperature.
The white suspension is stirred in air over a weekend at room temperature, filtrated and then dried in air at room temperature. […] The white suspension is stirred for about 20 hours at room temperature, filtrated and dried in air at room temperature.
The suspension is stirred for about 20 hours at room temperature under nitrogen atmosphere, filtrated and then drying under nitrogen.
The suspension is stirred at room temperature under nitrogen atmosphere for about 23 hours, filtrated and dried in air.
105 mg of hydrate form D according to example B3 are suspended in 2.0 ml IPA. The suspension is stirred at room temperature for about 18 hours, filtered and the solid then dried in air at room temperature for about 4 hours.
Powder X-ray Diffraction (PXRD): PXRD is performed either on a Philips 1710 or on a Philips X'Pert powder X-ray diffractometer using CuKα radiation. D-spacings are calculated from the 2θ using the wavelength of the CuKα1 radiation of 1.54060 A. The X-ray tube was operated at a Voltage of 45 kV (or 40 kV with X'Pert Instrument), and a current of 45 mA (or 40 mA with X'Pert Instrument). A step size of 0.02°, and a counting time of 2.4 s per step is applied. Generally, 2θ values are within an error of ±0.1-0.2°. The experimental error on the d-spacing values is therefore dependent on the peak location.
Raman spectroscopy: FT-Raman spectra are recorded on a Bruker RFS 100 FT-Raman system with a near infrared Nd:YAG laser operating at 1064 nm and a liquid nitrogen-cooled germanium detector. For each sample, 64 scans with a resolution of 2 cm^−1 are accumulated. Generally; 300 mW laser power is used.

Where [5] appears, read: 52% relative humidity, room temperature, 17 days, dihydrochloride.

In the case of `C[C@H](O)[C@H](O)[C@H]1CNc2nc(N)[nH]c(=O)c2N1.Cl.Cl` [form C, (6R)-L-erythro-tetrahydrobiopterin dihydrochloride], the “crystal form after storage” value in series [1] (setting [5]) is “retained”. Besides, in series [2], the hygroscopicity entry is on record as “slightly hygroscopic”. In addition, in series [3] (about 40° C. in air and lower relative humidity), the “conversion of the crystal form” value is recorded as “easily converted to polymorph form B”.

Regarding `C[C@H](O)[C@H](O)[C@H]1CNc2nc(N)[nH]c(=O)c2N1.Cl.Cl` [form G, (6R)-L-erythro-tetrahydrobiopterin dihydrochloride], the hygroscopicity entry in series [2] was “hygroscopic”.

Take `C[C@H](O)[C@H](O)[C@H]1CNc2nc(N)[nH]c(=O)c2N1.Cl.Cl` [form E, (6R)-L-erythro-tetrahydrobiopterin dihydrochloride]: the “crystal form after storage” value in series [1] (setting [5]) was “retained”. Moreover, in series [2], the hygroscopicity result is on record as “non-hygroscopic”.

`C[C@H](O)[C@H](O)[C@H]1CNc2nc(N)[nH]c(=O)c2N1.Cl.Cl` [form K, (6R)-L-erythro-tetrahydrobiopterin dihydrochloride]: in series [2] (listed as polymorph K), the hygroscopicity entry is on record as “slightly hygroscopic” and the adsorbed water content result was “about 2.0 percent by weight”. In series [3] (listed as polymorph K), the “relative stability of the crystal form” value was “less stable than form B at higher temperatures”.

In the case of `C[C@H](O)[C@H](O)[C@H]1CNc2nc(N)[nH]c(=O)c2N1.Cl.Cl` [form F, (6R)-L-erythro-tetrahydrobiopterin dihydrochloride], the “crystal form after exposure to humidity” value in series [1] (nitrogen with water vapour, relative humidity about 52%, about 24 hour) is on record as “crystalline form O”. In addition, in series [2] (listed as polymorph F), the hygroscopicity result is given as “slightly hygroscopic” and the adsorbed water content result is on record as “about 3 percent by weight”.

For `C[C@H](O)[C@H](O)[C@H]1CNc2nc(N)[nH]c(=O)c2N1.Cl.Cl` [form H, (6R)-L-erythro-tetrahydrobiopterin dihydrochloride], in series [2], the hygroscopicity entry is “hygroscopic”.

Turning to `C[C@H](O)[C@H](O)[C@H]1CNc2nc(N)[nH]c(=O)c2N1.Cl.Cl` [form B, (6R)-L-erythro-tetrahydrobiopterin dihydrochloride], the “crystal form after suspension stirring” value in series [4] (2-Propanol, over night, nitrogen) is recorded as “polymorph form B”; in series [4] (EtOH in air, over a weekend), “slightly yellow crystalline solid, polymorph form B”; in series [4] (EtOH, over night, nitrogen), “polymorph form B”; in series [4] (THF, about 20 hours, nitrogen (slightly yellow solid from the EtOH/air test)) it was “slightly yellow crystalline solid, polymorph form B”; in series [4] (acetone, over night, nitrogen) it was “polymorph form B”; in series [4] (acetonitrile containing 2% by weight of water, about 20 hours, nitrogen) it was “polymorph form B”. Also, the “crystal form after suspension stirring” value in series [4] (ethyl acetate containing 2% by weight of water, about 23 hours, nitrogen) is listed as “polymorph form B”; in series [4] (methanol, 5 hours, nitrogen), “polymorph form B”. Further, the “crystal form after storage” value in series [1] (open container under air, 75% relative humidity, 40° C., 5 days) is recorded as “still polymorph form B”. Moreover, the hygroscopicity entry in series [2] (listed as Polymorph B) is reported as “slightly hygroscopic”.

As to `C[C@H](O)[C@H](O)[C@H]1CNc2nc(N)[nH]c(=O)c2N1.Cl.Cl` [form D, (6R)-L-erythro-tetrahydrobiopterin dihydrochloride], in series [4] (IPA, about 18 hours), the “crystal form after suspension stirring” value is reported as “unchanged hydrate form D”. Further, the hygroscopicity result in series [2] is “slightly hygroscopic”. Also, the “stability on exposure to air humidity” value in series [3] (ambient temperature) is on record as “stable”. Besides, the “relative stability of the crystal form” value in series [3] was “most stable one under the known hydrates at ambient temperatures and a relative humidity of less than 70%; also recorded: most stable form under the hydrates”; in series [3] (listed as hydrate D), “much higher stability than form C”.

Turning to `C[C@H](O)[C@H](O)[C@H]1CNc2nc(N)[nH]c(=O)c2N1.Cl.Cl` [form M, (6R)-L-erythro-tetrahydrobiopterin dihydrochloride], the hygroscopicity result in series [2] was “slightly hygroscopic”.

`C[C@H](O)[C@H](O)[C@H]1CNc2nc(N)[nH]c(=O)c2N1.Cl.Cl` [form A, (6R)-L-erythro-tetrahydrobiopterin dihydrochloride]: the “crystal form after suspension stirring” value in series [4] (tertiary butyl methyl ether, about 18 hours, nitrogen, dihydrochloride) is “unchanged polymorph form A”; in series [4] (tertiary butyl methyl ether, about 18 hours, nitrogen, listed as polymorph A, dihydrochloride), “essentially still corresponds to form A”; in series [4] (tetrahydrofuran, five days, dihydrochloride) it was “unchanged polymorph form A”; in series [4] (tetrahydrofuran, five days, listed as polymorph A, dihydrochloride) it was “still corresponds to form A”. Moreover, the “crystal form after storage” value in series [1] (setting [5]) is listed as “corresponds to hydrate form E”. Further, in series [2] (listed as polymorph A), the hygroscopicity result was “slightly hygroscopic”. The “temperature above which the sample begins to decompose” value in series [2] (thermogravimetry, heating rate 10° C./minute) was “above 200 °C”. In addition, the adsorbed water content result in series [2] (listed as polymorph A) is listed as “about 3 percent by weight”.

For the molecule `C[C@H](O)[C@H](O)[C@H]1CNc2nc(N)[nH]c(=O)c2N1.Cl.Cl` [form I, (6R)-L-erythro-tetrahydrobiopterin dihydrochloride], the hygroscopicity entry in series [2] is recorded as “hygroscopic”.

As for `C[C@H](O)[C@H](O)[C@H]1CNc2nc(N)[nH]c(=O)c2N1.Cl.Cl` [form N, (6R)-L-erythro-tetrahydrobiopterin dihydrochloride], the hygroscopicity entry in series [2] is recorded as “slightly hygroscopic”.

Turning to `C[C@H](O)[C@H](O)[C@H]1CNc2nc(N)[nH]c(=O)c2N1.Cl.Cl` [form J, (6R)-L-erythro-tetrahydrobiopterin dihydrochloride], the hygroscopicity result in series [2] (listed as polymorph J) is on record as “slightly hygroscopic”. Moreover, the “relative humidity at which the form transforms back into form E” value in series [3] is listed as “above 75 % relative humidity”.

Turning to `C[C@H](O)[C@H](O)[C@H]1CNc2nc(N)[nH]c(=O)c2N1.Cl.Cl` [form O, (6R)-L-erythro-tetrahydrobiopterin dihydrochloride], the “relative stability of the crystal form” value in series [3] is “more stable than form F under ambient temperature and humidity conditions”.
